According to patent US20130158090A1, “METRONIDAZOLE ESTERS FOR TREATING ROSACEA” (GALDERMA RESEARCH & DEVELOPMENT, priority 2010, published 2013):
Each block holds one compound with its values, some of them ahead of it.

How the values were obtained:
[1] = system: oedema induced by TPA (phorbol 12-myristate-13-acetate) on mouse ear; experiment: Acute inflammation on mouse ear: oedema induced by TPA; type: in vivo; conditions: 6 hours after application
Description: The anti-inflammatory activities of the compound of formula (I) in racemic form, of the S enantiomer of the compound of formula (I), of metronidazole and of ibuprofen were measured in an in vivo test performed on a mouse model.
The model used is the model of mouse ear inflammation induced by a single application of TPA (phorbol 12-myristate-13-acetate). Female Balb/c ByJlco mice are used.
The oedema is induced by applying to the ear 20 μl of 0.01% TPA dissolved in ethanol.
The racemic compound of formula (I) is dissolved, at the desired concentration, in the 0.01% TPA solution and thus applied to a group of mice at the same time as the TPA.
The S enantiomer of the compound of formula (I) is dissolved, at the desired concentration, in the 0.01% TPA solution and thus applied to another group of mice at the same time as the TPA.
Similarly, ibuprofen (racemic) is dissolved, at the desired concentration, in the 0.01% TPA solution and is applied to another group of mice at the same time as the TPA. Finally, metronidazole is dissolved, at the desired concentration, in the 0.01% TPA solution and is applied to another group of mice at the same time as the TPA.
The oedema is evaluated, 6 hours after application of the test product, by measuring the thickness of the ear using an Oditest® micrometer.
The TPA-induced oedema is evaluated relative to the ethanol vehicle group. […]

[2] = Stability on keratinocyte cultures; type: in vitro ADME, human; conditions: human neonatal keratinocyte culture, 2 μM, degradation kinetics over 24 hours, LC/MS/MS; read-out: half-life time (t1/2) (converted)
Description: (§1) The stability on keratinocyte cultures is evaluated using human neonatal keratinocytes (Cell'N Tech) cultured in a 75 cm^2 flask and detached at 90-100% of confluence with vegetable trypsin (trypLE GIBCO). The compound of formula (I) was tested at 2 μM in the medium CNT-057 (Cell'N Tech) supplemented with 0.1% pluronic acid in 24-well plates. The final DMSO concentration is 0.1%. Degradation kinetics are performed with a Tecan EVO robot over 24 hours. The samples taken are then assayed by LC/MS/MS (Micromass) in comparison with a calibration range of the test product, prepared under the same conditions as the samples (⅓ culture medium and ⅔ methanol). The chromatographic conditions are optimized for each product. An assay of the appearance of metronidazole is also performed using these same samples.

[3] = system: oedema induced by arachidonic acid (AA) on mouse ear; experiment: Acute inflammation on mouse ear: arachidonic acid-induced oedema; type: in vivo; conditions: 1 hour after application
Description: The anti-inflammatory activities of the compound of formula (I) in racemic form, of the S enantiomer of the compound of formula (I), of metronidazole and of ibuprofen were measured in an in vivo test performed on a mouse model. This model consists in inducing inflammation of the mouse ear with a single application of arachidonic acid (AA). Female Balb/c ByJlco mice are used. The oedema is induced by applying to the mouse's ear 20 μL of AA dissolved to 4% in a 1/1 THF/methanol mixture. The anti-inflammatory activities of the S enantiomer of the compound of formula (I), of the compound of formula (I) in racemic form, of metronidazole and of ibuprofen were evaluated after topical application onto the inner face of the mouse's ear of 20 μL of a solution of the compound in a 1/1 THF/methanol mixture containing 4% AA.
Solutions containing 0.01%; 0.03%; 0.1%; 0.3%; 1% and 2% of the test compound are thus prepared. The percentages correspond to the weight of the test compound per volume of solution. The oedema is evaluated, 1 hour after application, by measuring the thickness of the ear using an Oditest® micrometer. The oedema induced by AA alone is evaluated, 1 hour after application, by measuring the thickness of the ear using an Oditest® micrometer. It is evaluated relative to a group comprising only the vehicle (1/1 THF/methanol). […]

[4] = system: human neonatal keratinocytes; experiment: Stability on keratinocyte cultures; type: in vitro ADME; conditions: human neonatal keratinocyte cultures, comparative esters
Description: as §1

Compound: Cc1ncc([N+](=O)[O-])n1CCOC(=O)[C@@H](C)c1ccc(CC(C)C)cc1 [S enantiomer of the compound of formula (I), 2-(2-methyl-5-nitroimidazol-1-yl)ethyl (S)-2-(4-isobutylphenyl)propionate]
- inhibition of the oedema induced by AA alone ([3]; dose of 1% (w/v) topical on mouse ear): 49%
- half-life at 2 μM [2]: 20 h

Compound: Cc1ncc([N+](=O)[O-])n1CCOC(=O)c1cc(-c2ccc(F)cc2F)ccc1O [metronidazole ester with diflunisal]
- hydrolysis / stability on keratinocyte cultures [4]: do not become hydrolysed

Compound: Cc1ncc([N+](=O)[O-])n1CCO [metronidazole]
- anti-inflammatory activity ([3]; AA-induced mouse ear oedema, topical): no anti-inflammatory activity
- anti-inflammatory activity ([1]; topical): no anti-inflammatory activity

Further lines, results first:

- IC50 (concentration at which 50% inhibition of the oedema induced by TPA alone is observed) ([1]; topical with 0.01% TPA): 0.28%
- half-life at 2 μM [2]: 3 h
Compound: Cc1ncc([N+](=O)[O-])n1CCOC(=O)C(C)c1ccc(CC(C)C)cc1 (racemic) [racemic compound of formula (I), 2-(2-methyl-5-nitroimidazol-1-yl)ethyl 2-(4-isobutylphenyl)propionate]

- hydrolysis / stability on keratinocyte cultures [4]: do not become hydrolysed
Compound: COc1ccc2c(c1)c(CC(=O)OCCn1c([N+](=O)[O-])cnc1C)c(C)n2C(=O)c1ccc(Cl)cc1 [metronidazole ester with indomethacin]

- hydrolysis / stability on keratinocyte cultures [4]: do not become hydrolysed
Compound: Cc1ncc([N+](=O)[O-])n1CCOC(=O)C1CCn2c(C(=O)c3ccccc3)ccc21 (stereo not shown) [metronidazole ester with ketorolac]

- hydrolysis / stability on keratinocyte cultures [4]: do not become hydrolysed
Compound: Cc1ncc([N+](=O)[O-])n1CCOC(=O)c1cccnc1Nc1cccc(C(F)(F)F)c1 [metronidazole ester with niflumic acid]
